Values belong to the compound of their own block, whether it stands above or below them.
Assays:
MIA PaCa-2 cells [1] = experiment: In-vitro anti-proliferative activity against MIA PaCa-2 cells; format: cell-based; details: 72 h after dosing, intracellular ATP content
Description: (§1) MIA PaCa-2 cells were seeded on a 384-well plate at 3000 cells/well. After overnight adherence culture, DMSO or the compounds serially diluted 1:5 from 5 μM were added. […] The inhibition percentage of viable cells by the compounds was calculated by comparing with the DMSO group, and the IC50 value was calculated.

MIA PaCa-2 cells [2] = experiment: In-vitro anti-proliferative activity in combination with gemcitabine against MIA PaCa-2 cells; format: cell-based; details: in combination with 20 nM gemcitabine, 72 h after dosing
Description: as §1, with “cells/well, and 20 nM gemcitabine was added.” for “cells/well.”, “100 nM” for “5 μM”

[3] = Liver microsomal stability (human); format: in vitro ADME; details: human liver microsomes, 1 μM compound, NADPH regeneration system, 37° C.; for half-life at 1 μM: read-out: T1/2 (min) Human
Description: (§2) After 1 μM compound was incubated with 500 µg/mL of human or mouse liver microsomes and a NADPH regeneration system at 37° C. for different times, respectively, LC-MS-MS was used to analyze the remaining amount of the compound and calculate T1/2.

[4] = Liver microsomal stability (mouse); format: in vitro ADME; details: mouse liver microsomes, 1 μM compound, NADPH regeneration system, 37° C.; for half-life at 1 μM: read-out: T1/2 (min) Mouse
Description: as §2

[5] = system: Human colon cancer LOVO cells; experiment: In vivo efficacy in LoVo model; parameters: species or system nude mouse; details: LoVo model in nude mice, 20 mpk BID PO, days 1-3, 8-10, 15-17 and day 21
Description: After being subcultured, the cells were collected when they reached the desired amount. 1×10^7 LOVO cells were injected into the left dorsal side of each nude mouse, and the animals were randomly grouped for administration after tumors grew to 100-200 mm^3. The groups were as follows: a solvent control group of 8 mice and a compound group of 8 mice. The compounds were administered orally 3 days a week and interrupted for 4 days, for 21 consecutive days. The vehicle was a 0.5% MC suspension containing 1% tween-80. On Tuesday and Thursday each week, tumor volumes and body weight of the mice were measured, and the nude mice were sacrificed on day 21 after the administration. […] The toxicity of the compounds was evaluated according to the body weight of the mice.

[6] = system: Human colon cancer HT29 cells; experiment: In vivo efficacy in HT-29 model, alone and with gemcitabine; parameters: species or system nude mouse; details: HT-29 model in nude mice, day 21
Description: After being subcultured, the cells were collected when they reached the desired amount. 1×10^7 HT29 cells were injected into the left dorsal side of each nude mouse, and the animals were randomly grouped for administration after tumors grew to 100-200 mm^3. The groups were as follows: a solvent control group of 6 mice, a single drug group of 15 mg/kg gemcitabine (GMC), and a combination group of 15 mg/kg gemcitabine and a compound. Gemcitabine was administered intraperitoneally with PBS as a vehicle once a week. The compounds were administered 3 days a week and interrupted for 4 days (3 on/4 off), for 21 consecutive days, and the vehicle was a 0.5% MC suspension containing 1% tween-80. On Tuesday and Thursday each week, tumor volumes and body weight of the mice were measured, and the nude mice were sacrificed on day 21 after the administration. […] The toxicity of the compounds was evaluated according to the body weight of the mice.

[7] = In vivo pharmacokinetic experiment in mice; parameters: species or system CD-1 female mice; details: for Vd: read-out: Vdss
Description: CD-1 female mice aged 7 to 10 weeks were intravenously administered and orally administered at a dose of 2 mg/kg and 10 mg/kg, respectively. The mice were fasted for at least 12 h before the administration and given food 4 h after the administration, and they were given ad libitum access to water during the experiment.
On the day of the experiment, animals in the intravenous group were administered the corresponding compound by single injection via the tail vein at an administration volume of 10 mL/kg, and animals in the oral group were administered the corresponding compound by single intragastric injection at an administration volume of 10 mL/kg. The animals were weighed before administration, and the administration volume was calculated according to the body weight. The sample collection time was 0.083 h, 0.167 h, 0.5 h, 1 h, 2 h, 4 h, 8 h and 24 h. About 200 μL of whole blood was collected through the orbital venous plexus at each time point and used to prepare plasma for concentration determination by high performance liquid chromatography-tandem mass spectrometry (LC-MS/MS). The plasma concentrations were processed using a non-compartmental model of Winnolin pharmacokinetic software, and the pharmacokinetic parameters were calculated using a linear-log trapezoidal method.

[8] = Pharmacokinetic evaluation in rats; format: in vivo, SD female rats
Description: SPF-grade SD female rats aged 7 to 10 weeks were intravenously administered and orally administered at a dose of 1 mg/kg and 10 mg/kg, respectively. The rats were fasted for at least 12 h before the administration and given food 4 h after the administration, and they were given ad libitum access to water during the experiment.
On the day of the experiment, animals in the intravenous group were administered the corresponding compound by single injection via the tail vein at an administration volume of 2 mL/kg, and animals in the oral group were administered the corresponding compound by single intragastric injection at an administration volume of 10 mL/kg. The animals were weighed before administration, and the administration volume was calculated according to the body weight. The sample collection time was 0.083 h (only intravenous group), 0.125 h (only oral group), 0.25 h, 0.5 h, 1 h, 2 h, 4 h, 6 h, 8 h and 24 h. About 200 μL of whole blood (EDTA-K2 anticoagulated) was collected via the jugular vein or other suitable vein at each time point and used to prepare plasma for concentration determination by high performance liquid chromatography-tandem mass spectrometry (LC-MS/MS). All animals were suffocated by CO2 after the PK samples were collected at the last time point. The plasma concentrations were processed using a non-compartmental model of Winnolin™ version 8.2 (Pharsight, mountain View, CA) pharmacokinetic software, and the pharmacokinetic parameters were calculated using a linear-log trapezoidal method.

[9] = female, CD-1, mouse, plasma, Oral administration (10 mg/kg)
[10] = female, CD-1, mouse, plasma, Oral administration (10 mg/kg), read-out: Cmax
[11] = female, CD-1, mouse, plasma, Oral administration (10 mg/kg), read-out: Tmax
[12] = female, CD-1, mouse, plasma, iv, Injection (2 mg/kg)
[13] = compound 20 mpk BID PO 3 on/4 off + GMC 15 mpk QW IP
[14] = single agent, 20 mpk BID PO, 3on/4off

Compound: C[C@@H]1COCCN1c1cc(C2(C#N)CCCC2)c2ccnc(-c3ccn[nH]3)c2n1 [Compound 27]
IC50 (MIA PaCa-2 cells [1]; Homo sapiens): 1 to 5 µM
IC50 (MIA PaCa-2 cells [2]): 0.00148 µM
half-life at 1 μM [3]: 27.2 min
half-life at 1 μM [4]: 9.14 min
TGI(%) [5]: 62.7%

Compound: Nc1ccn([C@@H]2O[C@H](CO)[C@@H](O)C2(F)F)c(=O)n1 [GMC, gemcitabine, reference compound]
TGI(%) ([6]; GMC alone 15 mpk QW IP, once a week): 50.7%

Compound: C[C@@H]1COCCN1c1cc(C2(C#N)CCC(O)CC2)c2ccnc(-c3ccn[nH]3)c2n1 (stereo partly drawn) [Compound 33, (R)-4-hydroxy-1-(2-(3-methylmorpholine)-8-(1H-pyrazol-5-yl)-1,7-naphthyridin-4-yl)cyclohexane-1-carbonitrile]
IC50 (MIA PaCa-2 cells [1]; Homo sapiens): < 1 µM
IC50 (MIA PaCa-2 cells [2]): 0.00108 µM
half-life at 1 μM [3]: 632 min
half-life at 1 μM [4]: 19.6 min
AUC(0-t) [7, 9]: 0.937 µg·h/mL
bioavailability [7, 9]: 31.8%
half-life [7, 9]: 41.4 min
Cmax [7, 10]: 1.01 µg/mL
Tmax [7, 11]: 30 min
AUC(0-t) [7, 12]: 0.588 µg·h/mL
clearance [7, 12]: 3.4 L/h/kg
half-life [7, 12]: 96.6 min
Vd [7, 12]: 1.27 L/kg
TGI(%) [5]: 79.1%
TGI(%) [6, 13]: 82.3%
TGI(%) [6, 14]: 57.4%

Compound: C[C@@H]1COCCN1c1cc(C2(C#N)CCN(C)CC2)c2ccnc(-c3ccn[nH]3)c2n1 [Compound 43]
IC50 (MIA PaCa-2 cells [1]; Homo sapiens): < 1 µM
IC50 (MIA PaCa-2 cells [2]): 0.00124 µM
half-life at 1 μM [3]: 9.44 min
half-life at 1 μM [4]: 18.9 min
AUC(0-t) [7, 9]: 0.439 µg·h/mL
bioavailability [7, 9]: 35.5%
half-life [7, 9]: 47.4 min
Cmax [7, 10]: 0.616 µg/mL
Tmax [7, 11]: 15 min
AUC(0-t) [7, 12]: 0.247 µg·h/mL
clearance [7, 12]: 8.1 L/h/kg
half-life [7, 12]: 13.2 min
Vd [7, 12]: 1.79 L/kg
TGI(%) [5]: 75.3%
TGI(%) [6, 13]: 84.4%
TGI(%) [6, 14]: 51.2%

Compound: C[C@@H]1COCCN1c1cc(C2(C#N)CCN(C3CCCC3)CC2)c2ccnc(-c3ccn[nH]3)c2n1 [Compound 69]
IC50 (MIA PaCa-2 cells [1]; Homo sapiens): < 1 µM
half-life at 1 μM [3]: 5.9 min
half-life at 1 μM [4]: 7.52 min

Compound: (R)-1-(2-(3-methylmorpholino)-8-(1H-pyrazol-5-yl)-1,7-naphthyridin-4-ylmethyl)cyclohexane-1-carbonitrile [Compound 25]
IC50 (MIA PaCa-2 cells [1]): < 1 µM
IC50 (MIA PaCa-2 cells [2]): 0.000257 µM
T1/2 (min) Human [3]: 7.90 min
T1/2 (min) Mouse [4]: 2.90 min
AUC0-last ([7]; Injection (2 mg/kg)): 0.20321 µg·h/mL
Cl ([7]; Injection (2 mg/kg)): 4.921 L/h/kg
T1/2 ([7]; Injection (2 mg/kg)): 19.8 min
Vdss ([7]; Injection (2 mg/kg)): 1.84 L/kg
AUC0-last ([7]; Oral administration (10 mg/kg)): 1.1031 µg·h/mL
Cmax ([7]; Oral administration (10 mg/kg)): 0.455 µg/mL
F % ([7]; Oral administration (10 mg/kg)): 54.3%
T1/2 ([7]; Oral administration (10 mg/kg)): 53.4 min
Tmax ([7]; Oral administration (10 mg/kg)): 60 min
AUC0-last ([8]; Injection (1 mg/kg)): 0.26992 µg·h/mL
Cl ([8]; Injection (1 mg/kg)): 3.705 L/h/kg
T1/2 ([8]; Injection (1 mg/kg)): 39 min
Vdss ([8]; Injection (1 mg/kg)): 2.14 L/kg
AUC0-last ([8]; Oral administration (10 mg/kg)): 1.30943 µg·h/mL
Cmax ([8]; Oral administration (10 mg/kg)): 0.39633 µg/mL
F % ([8]; Oral administration (10 mg/kg)): 48.5%
T1/2 ([8]; Oral administration (10 mg/kg)): 30 min
Tmax ([8]; Oral administration (10 mg/kg)): 54 min
TGI(%) [5]: 84.0%
TGI(%) [6, 13]: 86.1%

Compound: C[C@@H]1COCCN1c1cc(C(C)(C)C#N)c2ccnc(-c3ccn[nH]3)c2n1 [Compound 3, (R)-2-methyl-2-(2-(3-methylmorpholino)-8-(1H-pyrazol-5-yl)-1,7-naphthyridin-4-yl)propionitrile]
IC50 (MIA PaCa-2 cells [1]; Homo sapiens): > 5 µM

Compound: C[C@@H]1COCCN1c1cc(C2(C#N)CCN(C3CC3)CC2)c2ccnc(-c3ccn[nH]3)c2n1 [Compound 46]
IC50 (MIA PaCa-2 cells [1]; Homo sapiens): < 1 µM

Compound: CC(C#N)c1cc(N2CCOC[C@H]2C)nc2c(-c3ccn[nH]3)nccc12 (stereo partly drawn) [Compound 2, 2-(2-((R)-3-methylmorpholino)-8-(1H-pyrazol-5-yl)-1,7-naphthyridin-4-yl)propionitrile]
IC50 (MIA PaCa-2 cells [1]; Homo sapiens): > 5 µM

Continued, in another order:

IC50 (MIA PaCa-2 cells [1]; Homo sapiens): < 1 µM
IC50 (MIA PaCa-2 cells [2]): 0.000661 µM
Compound: C[C@@H]1COCCN1c1cc(C2(C#N)CCC(N3CCCC3)CC2)c2ccnc(-c3ccn[nH]3)c2n1 (some centres unmarked) [Compound 35]

IC50 (MIA PaCa-2 cells [1]; Homo sapiens): < 1 µM
Compound: C[C@@H]1COCCN1c1cc(C2(C#N)CCC(OC3CCC3)CC2)c2ccnc(-c3ccn[nH]3)c2n1 (some centres unmarked) [Compound 58]

IC50 (MIA PaCa-2 cells [1]; Homo sapiens): < 1 µM
IC50 (MIA PaCa-2 cells [2]): 0.000624 µM
half-life at 1 μM [3]: 61.4 min
half-life at 1 μM [4]: 52.4 min
Compound: C[C@@H]1COCCN1c1cc(C2(C#N)CCC(N(C)C)CC2)c2ccnc(-c3ccn[nH]3)c2n1 (stereo partly drawn) [Compound 34, (R)-4-(dimethylamino)-1-(2-(3-methylmorpholine)-8-(1H-pyrazol-5-yl)-1,7-naphthyridin-4-yl)cyclohexane-1-carbonitrile]
TGI(%) [5]: 81.4%
TGI(%) [6, 13]: 78.1%
TGI(%) [6, 14]: 58.3%

IC50 (MIA PaCa-2 cells [1]; Homo sapiens): < 1 µM
half-life at 1 μM [3]: 24.8 min
half-life at 1 μM [4]: 7.78 min
AUC(0-t) [7, 9]: 0.669 µg·h/mL
bioavailability [7, 9]: 30.2%
half-life [7, 9]: 87 min
Cmax [7, 10]: 0.299 µg/mL
Tmax [7, 11]: 30 min
AUC(0-t) [7, 12]: 0.444 µg·h/mL
clearance [7, 12]: 4.51 L/h/kg
half-life [7, 12]: 16.2 min
Vd [7, 12]: 1.61 L/kg
Compound: COC1CCC(C#N)(c2cc(N3CCOC[C@H]3C)nc3c(-c4ccn[nH]4)nccc23)CC1 (stereo partly drawn) [Compound 53, (R)-4-methoxy-1-(2-(3-methylmorpholine)-8-(1H-pyrazol-5-yl)-1,7-naphthyridin-4-yl)cyclohexane-1-carbonitrile]

IC50 (MIA PaCa-2 cells [1]; Homo sapiens): < 1 µM
Compound: C[C@@H]1COCCN1c1cc(C2(C#N)CCN(c3ccc(Cl)cc3)CC2)c2ccnc(-c3ccn[nH]3)c2n1 [Compound 45, (R)-1-(4-chlorophenyl)-4-(2-(3-methylmorpholino)-8-(1H-pyrazol-5-yl)-1,7-naphthyridin-4-yl)piperidine-4-carbonitrile]

IC50 (MIA PaCa-2 cells [1]; Homo sapiens): < 1 µM
Compound: C[C@@H]1COCCN1c1cc(C2(C#N)CC3CCC(C2)O3)c2ccnc(-c3ccn[nH]3)c2n1 (stereo partly drawn) [Compound 85, 3-(2-((R)-3-methylmorpholino)-8-(1H-pyrazol-5-yl)-1,7-naphthyridin-4-yl)-8-oxabicyclo[3.2.1]octane-3-carbonitrile]

From patent US20240317741A1, “NAPHTHYRIDINE DERIVATIVE AS ATR INHIBITOR AND METHOD FOR PREPARING SAME” (WIGEN BIOMEDICINE TECHNOLOGY (SHANGHAI) CO., LTD., priority 2021, published 2024)
